In US20260315431A1, “NANOMATERIAL ENCAPSULATED BIOFILM INHIBITORS FOR DENTAL CARIES TREATMENT” (THE UAB RESEARCH FOUNDATION, priority 2023, published 2026):
≈ marks a conversion by molar mass, not a printed value. Where two headings read alike, the source gives them in different places.

Legend:
S. mutans UA159 [1] = assay: Biofilm inhibition, S. mutans UA159 (crystal violet, OD562); assay type: cell-based, Streptococcus mutans; details: for IC50 / inhibition at 50 µM: Streptococcus mutans; for inhibition at 50 µM: UA159, 50 μM; for S. mutans biofilm inhibition: 50 μM
Method: (§1) The bacterial strains, S. mutans UA159, S. gordonii DL1, and S. sanguinis SK36 were inoculated statically at 37° C. under 5% CO2 in Todd Hewitt Broth (THB) for 24 h. The cultures were then diluted with fresh THB (1:5) and reinoculated until optical density at 470 nm (OD470) reached 1. The optical density was read using BioTek 800TS microplate reader at 470 nm for bacterial growth and 562 nm for biofilm stained with crystal violet. Data was plotted in Graphpad Prism9.
Biofilm inhibition assays. Biofilm inhibition assays were performed in polystyrene microtiter 96 well plates. Stock solutions were prepared in chemically defined medium (CDM, JRH Biosciences, Lenexa, KS) with 2% sucrose, 1% bacteria cultures and various concentrations of the small molecule inhibitors to examine their activity against biofilm formation as described^69, 70. These stocks were assayed in 96 well plates in triplicate and incubated at 37° C. and 5% CO2 for 16 h. After reading optical density for bacterial growth, the plate was gently washed with water, dried, and stained with crystal violet, and then gently rinsed again with deionized water leaving the stained biofilm at the bottoms of the wells. Biofilms was dissolved in 200 μL of 30% acetic acid and absorbance at 562 nm was used read to determine biofilm biomass. Each assay was carried out at least in triplicate. Biofilm inhibitory concentration (IC50) of the compounds was determined by serial dilutions.
(§2) All bacterial strains (S. mutans UA159, S. gordonii DL1, and S. sanguinis SK36) were inoculated statically at 37° C. under 5% CO2 environment in Todd Hewitt Broth (THB) for 24 h^[61]. The cultures were then diluted with fresh THB (1:5) and reinoculated until the optical density at 470 nm reaches 1. The optical density was read using BioTek 800 TS absorbance reader at 470 nm for bacterial growth and 562 nm for biofilm stained with crystal violet. Data was plotted in Prism 10.0.2.
Biofilm inhibition assays were performed in polystyrene microtiter 96-well plates. Stock solutions were prepared in chemically defined medium (CDM) with 1% sucrose, 1% bacteria cultures and various concentrations of the small molecule inhibitors to examine their activity against biofilm formation as described^[62, 63]. These stocks were assayed in 96 well plates in triplicate and incubated at 37° C. and 5% CO2 for 16 h. After reading optical density for bacterial growth, the plate was washed, dried, and stained with 0.1% crystal violet which was again rinsed well with deionized water leaving the stained biofilm at the bottoms of the wells. This biofilm was dissolved in 200 μL of 30% acetic acid and absorbance at 562 nm was read to determine amount of biofilm formation. Each assay was carried out at least in triplicate. Biofilm inhibitor concentration (IC50) of the compounds was determined by serial dilutions from 0 μM-50 μM (1% DMSO).

S. mutans UA159 [2] = assay: Planktonic growth, S. mutans UA159 (OD470); assay type: cell-based, Streptococcus mutans; details: for inhibition at 50 µM: Streptococcus mutans, UA159, read-out: planktonic growth inhibition of S. mutans, 50 μM
Method: as §1
(§3) S. mutans, S. gordonii, and S. sanguinis growth assays. Effects of compounds on S. mutans and commensal bacterial growth were evaluated using the growth assay as described^69. S. mutans UA159, S. gordonii DL1, S. sanguinis SK36, cultures were grown for 24 h under 5% CO2 at 37° C. These cultures were then reinoculated with fresh THB (1:5) until OD470=1 when the bacteria were ready to be used. Different concentrations of the inhibitor were assayed in chemically defined media (CDM) with 1% of the bacteria, 1% sucrose and 1% DMSO in 96 well plates. The 96 well plates were incubated under 5% CO2 at 37° C. for 16 h. Growth of the bacteria was read after 16 h at OD470. Each assay was carried out at least in triplicate.
as §2
as §3, with “Effects” for “S. mutans, S. gordonii, and S. sanguinis growth assays. Effects”, “PEHA5, PEHA6, HA5 or HA6” for “compounds”, “described^[62].” for “described^69.”, “PEHA5, PEHA6, HA5 or HA6” for “inhibitor”, “CDM” for “chemically defined media (CDM)”

[3] = Solubility in water containing 1% DMSO (UV spectroscopy); assay type: physicochemical; details: for solubility compared with IIIC5: comparison with IIIC5 (25 μg/mL); for solubility: organic solvent or mixture, water containing 1% DMSO
Method: Solubility of MA1-6 and HA2-6 were determined as reported^46 (Table 1).
General considerations. ^1H-NMR and ^13C-NMR spectra were recorded on Bruker Avance Neo 400 and Avance II 700 spectrometers using TMS or appropriate solvent signals as internal standard. The chemical shift values are given in parts per million (ppm) relative to the internal standard used and the coupling constants (J) are given in hertz (Hz). High resolution mass spectra (HRMS) were recorded using Waters AutoSpec-Ultima™ NT magnetic sector mass spectrometer with Electron Impact (EI) Ionization source. The mass analyzer is an electric-magnetic-electric (EBE) sector (a double focusing sector). Anhydrous solvents used for reactions were purchased in Sure-Seal™ bottles from Aldrich chemical company. Other chemical reagents were purchased from Aldrich or Fisher chemical companies and used as received. Reactions were monitored with thin layer chromatography (TLC), which was done on silica gel plates with fluorescent indicator (Silicycle, silica gel, UV254, 25 μm plates). The TLC spots were observed under UV light with the wavelengths 254 nm and 365 nm. The reaction mixtures were purified by column chromatography using Si gel (32-63 μm) from Dynamic Absorbent, Inc. Melting points were determined on a Mel-Temp II melting point apparatus and are uncorrected. All tested compounds have ≥95% purity as determined by HPLC. HPLC traces were obtained using Shimadzu SPD-M20A. Solubility of compounds were determined by UV-spectroscopy method using Agilent Cary 60 UV-Vis spectrophotometer. HPLC analysis of the final compounds were conducted using Kinetex 5 μm C18 100 Å, LC Column 150×4.6 mm, compound=3 mM, 20 μL injection, solvent: mobile phase buffer, Conditions: 60% MeCN/40% H2O/0.1% Formic acid (isocratic), HPLC method 0-10 min, Signals were analyzed using a 254 nm UV detector. A chromatogram of Mobile Phase Buffer (20 μL) was obtained for comparison.

[4] = water, 1% dmso; cited from earlier work
[5] = S. mutans UA159 biofilm, read-out: Biofilm IC50

SMILES | IC50 (S. mutans UA159 [1]; UA159, read-out: Biofilm IC50) | solubility [3] | inhibition at 50 µM (S. mutans UA159 [2]) | further results
O=C(C=Cc1ccccc1)c1ccccc1O [Compound 3a, 1-(2-Hydroxyphenyl)-3-phenyl-2-propen-1-one] | > 300 µM |  |  | 
COc1ccc(C=CC(=O)c2ccccc2O)cc1 [Compound 3b, 1-(2-Hydroxyphenyl)-3-(4′-methoxyphenyl)-2-propen-1-one] | > 300 µM |  |  | 
COc1ccc(C=CC(=O)c2ccccc2O)cc1OC [Compound 3c, 3-(3′,4′-Dimethoxyphenyl)-1-(2-hydroxyphenyl) prop-2-en-1-one] | > 300 µM |  |  | 
COc1cc(C=CC(=O)c2ccccc2O)cc(OC)c1 [Compound 3d, 3-(3′,5′-Dimethoxyphenyl)-1-(2-hydroxyphenyl) prop-2-en-1-one] | > 300 µM |  |  | 
COc1cc(OC)c(OC)cc1C=CC(=O)c1ccccc1O [Compound 3e, 1-(2-Hydroxyphenyl)-3-(2′,4′,5′-trimethoxyphenyl) prop-2-en-1-one] | > 300 µM |  |  | 
COc1cc(C=CC(=O)c2ccccc2O)cc(OC)c1OC [Compound 3f, 1-(2-Hydroxyphenyl)-3-(3′,4′,5′-trimethoxyphenyl) prop-2-en-1-one] | 181 µM |  |  | inhibition at 50 µM (S. mutans UA159 [1]): 40%; planktonic growth of S. mutans (S. mutans UA159 [2]; 50 μM): no growth inhibition
O=C1/C(=C/c2ccc(O)cc2)Oc2ccccc21 [HA2, 2-[(4′-Hydroxyphenyl)methylidene]-2,3-dihydro-1-benzofuran-3-one] | 18.8 ± 2.36 µM | 18.9 µg/mL (≈ 79.5 µM) | 60% | solubility compared with IIIC5 [3]: lower solubility than IIIC5; inhibition at 50 µM (S. mutans UA159 [1]): > 95%; planktonic growth inhibition of S. mutans (S. mutans UA159 [2]; 50 μM): 70%
O=C1/C(=C/c2ccc(O)c(O)c2)Oc2ccccc21 [HA3, 2-[(3′,4′-Dihydroxyphenyl)methylidene]-2,3-dihydro-1-benzofuran-3-one] | 30.7 µM |  | 40% | solubility ([3]; UV spectroscopy): 81.6 µg/mL (≈ 321 µM); inhibition at 50 µM (S. mutans UA159 [1]): ~80%; IC50 (S. mutans UA159 [1]; [5]): 30.7 µM
O=C1/C(=C/c2cc(O)cc(O)c2)Oc2ccccc21 [HA4, 2-[(3′,5′-Dihydroxyphenyl)methylidene]-2,3-dihydro-1-benzofuran-3-one] | 94.2 µM |  | 30% | solubility ([3]; UV spectroscopy): 76.5 µg/mL (≈ 301 µM); S. mutans biofilm inhibition (S. mutans UA159 [1]): did not show significant biofilm inhibition; IC50 (S. mutans UA159 [1]; [5]): 94.2 µM
O=C1C(=Cc2ccccc2)Oc2ccccc21 [MA1, 2-(Phenylmethylidene)-2,3-dihydro-1-benzofuran-3-one] | 33.6 ± 0.53 µM |  | 80% | solubility compared with IIIC5 [3]: lower solubility than IIIC5; solubility ([3]; UV spectroscopy): 8.51 ± 2 µg/mL (≈ 38.3 µM)
COc1ccc(/C=C2\Oc3ccccc3C2=O)cc1 [MA2, 2-[(4′-Methoxyphenyl)methylidene]-2,3-dihydro-1-benzofuran-3-one] | 108 µM | 16.2 µg/mL (≈ 64.3 µM) |  | solubility compared with IIIC5 [3]: lower solubility than IIIC5; IC50 (S. mutans UA159 [1]; UA159, read-out: Biofilm IC50 (unit inferred)): 108 µM
COc1ccc(/C=C2\Oc3ccccc3C2=O)cc1OC [MA3, 2-[(3′,4′-Dimethoxyphenyl)methylidene]-2,3-dihydro-1-benzofuran-3-one] | 49.4 µM | 36.3 µg/mL (≈ 128 µM) |  | S. mutans biofilm inhibition (S. mutans UA159 [1]): inactive; IC50 (S. mutans UA159 [1]; [5]): 49.4 µM
COc1cc(/C=C2\Oc3ccccc3C2=O)cc(OC)c1 [MA4, 2-[(3′,5′-Dimethoxyphenyl)methylidene]-2,3-dihydro-1-benzofuran-3-one] | > 300 µM | 19 µg/mL (≈ 67.2 µM) |  | solubility compared with IIIC5 [3]: lower solubility than IIIC5
COc1cc(OC)c(OC)cc1/C=C1\Oc2ccccc2C1=O [MA5, 2-[(2′,4′,5′-Trimethoxyphenyl)methylidene]-2,3-dihydro-1-benzofuran-3-one] | 52.8 µM | 42.4 µg/mL (≈ 136 µM) | 30% | inhibition at 50 µM (S. mutans UA159 [1]): 60%; IC50 (S. mutans UA159 [1]; [5]): 52.8 µM
COc1cc(/C=C2\Oc3ccccc3C2=O)cc(OC)c1OC [MA6, 2-[(3′,4′,5′-Trimethoxyphenyl)methylidene]-2,3-dihydro-1-benzofuran-3-one] | > 300 µM | 44.7 µg/mL (≈ 143 µM) |  | 
O=C(O)c1ccccc1O [Salicylic acid] |  |  |  | solubility [4]: 1880 ± 30 µg/mL (≈ 13600 µM)
